In patent US9505795B2, “Method for producing scyllo-inositol” (Asahi Kasei Chemicals Corporation, priority 2012, dated 2016):

Key:
amyloid β protein = settings: reported in Non-patent Reference 1; cited from earlier work
[1] = water solubility compared with scyllo-inositol; type: physicochemical; settings: 25° C., W/V; ratio to scyllo-inositol
Text: Since the scyllo-inositol derivative of the present invention can be produced and treated at high concentration in an aqueous solution, producing scyllo-inositol by obtaining the scyllo-inositol derivative of the present invention and treating it enzymatically has many advantages. Such methods are therefore one preferred method of utilizing the scyllo-inositol derivative of the present invention.

Compound | effect on amyloid β protein aggregation (amyloid β protein) | water solubility relative to the original scyllo-inositol [1]
O[C@H]1[C@H](O)[C@@H](O)[C@H](O)[C@@H](O)[C@@H]1O [scyllo-inositol, cis-1,3,5-trans-2,4,6-cyclohexanehexyl] | inhibitory effect | –
OC[C@@H]1O[C@@H](O[C@H]2[C@H](O)[C@H](O)[C@H](O)[C@@H](O)[C@H]2O)[C@@H](O)[C@@H](O)[C@@H]1O [scyllo-inositol derivative, 1-O-β-D-glucopyranosyl-scyllo-inositol] | – | at least four
